Key:
[1] = target: T1, Casein kinase I isoform alpha (Homo sapiens, UniProt P48729); test: CSNK1A1 Inhibitory activity Assay 2
Excerpt: (§1) Recombinant fusion protein of N-terminal Glutathion-S-Transferase (GST) and full-length human CSNK1A1, expressed by baculovirus infected insect cells and purified via Glutathion affinity chromatography, was purchased from Life Technologies (product no. PV4174) and used as enzyme. As substrate for the kinase reaction the biotinylated peptide biotin-Ahx-KRRRAL-pS-VASLPGL (C-terminus in amide form) was used which can be purchased e.g. from the company Biosyntan (Berlin-Buch, Germany). For the assay 50 nl of a 100 fold concentrated solution of the test compound in DMSO was pipetted into a white low volume 384-well microtiter plate (Greiner Bio-One, Frickenhausen, Germany), 2 μL of a solution of CSNK1A1 in aqueous assay buffer [50 mM HEPES pH 7.5, 10% (v/v) glycerol, 10 mM MgCl2, 50 mM NaCl, 1 mM dithiothreitol, 0.01% (w/v) bovine serum albumin, 0.01% (v/v) Triton X-100] were added and the mixture was incubated for 15 min at 22 C. to allow pre-binding of the test compounds to the enzyme before the start of the kinase reaction. […] Subsequently 2.5 μL of the kinase detection reagent (1.2 fold more concentrated than recommended by the producer) were added, the resulting mixture was incubated at 22 C. for 1 h and then the luminescence measured with a suitable measurement instrument (e.g. Viewlux from Perkin-Elmer).

[2] = target: Casein kinase I isoform delta (Homo sapiens, UniProt P48730); test: CSNK1D-Inhibitory Activity Assay
Chain of Casein kinase I isoform delta (P48730 whole entry, canonical isoform): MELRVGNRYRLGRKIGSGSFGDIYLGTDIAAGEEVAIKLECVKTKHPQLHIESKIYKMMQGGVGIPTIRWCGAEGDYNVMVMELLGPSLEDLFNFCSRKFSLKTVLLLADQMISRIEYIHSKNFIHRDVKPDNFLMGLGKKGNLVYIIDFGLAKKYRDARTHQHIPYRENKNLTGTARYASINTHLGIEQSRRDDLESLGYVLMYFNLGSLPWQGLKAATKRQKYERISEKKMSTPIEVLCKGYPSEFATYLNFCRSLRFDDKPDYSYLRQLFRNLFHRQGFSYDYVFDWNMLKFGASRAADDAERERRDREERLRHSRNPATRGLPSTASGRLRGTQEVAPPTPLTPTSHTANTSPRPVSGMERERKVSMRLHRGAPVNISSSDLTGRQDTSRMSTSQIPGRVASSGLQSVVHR
Method: as §1, with “CSNK1D,” for “CSNK1A1,”, “PV3665)” for “PV4174)”, “Btn-Ahx-[…]” for “biotin-Ahx-KRRRAL-pS-VASLPGL”, “1536-well” for “low volume 384-well”, “CSNK1D” for “CSNK1A1”

[3] = target: T1, Casein kinase I isoform alpha; test: CSNK1A1 High ATP Assay
Excerpt: as §1

[4] = target: Epidermal growth factor receptor (Homo sapiens, UniProt P00533); test: WT-EGFR Kinase Assay
Chain of Epidermal growth factor receptor (P00533 whole entry): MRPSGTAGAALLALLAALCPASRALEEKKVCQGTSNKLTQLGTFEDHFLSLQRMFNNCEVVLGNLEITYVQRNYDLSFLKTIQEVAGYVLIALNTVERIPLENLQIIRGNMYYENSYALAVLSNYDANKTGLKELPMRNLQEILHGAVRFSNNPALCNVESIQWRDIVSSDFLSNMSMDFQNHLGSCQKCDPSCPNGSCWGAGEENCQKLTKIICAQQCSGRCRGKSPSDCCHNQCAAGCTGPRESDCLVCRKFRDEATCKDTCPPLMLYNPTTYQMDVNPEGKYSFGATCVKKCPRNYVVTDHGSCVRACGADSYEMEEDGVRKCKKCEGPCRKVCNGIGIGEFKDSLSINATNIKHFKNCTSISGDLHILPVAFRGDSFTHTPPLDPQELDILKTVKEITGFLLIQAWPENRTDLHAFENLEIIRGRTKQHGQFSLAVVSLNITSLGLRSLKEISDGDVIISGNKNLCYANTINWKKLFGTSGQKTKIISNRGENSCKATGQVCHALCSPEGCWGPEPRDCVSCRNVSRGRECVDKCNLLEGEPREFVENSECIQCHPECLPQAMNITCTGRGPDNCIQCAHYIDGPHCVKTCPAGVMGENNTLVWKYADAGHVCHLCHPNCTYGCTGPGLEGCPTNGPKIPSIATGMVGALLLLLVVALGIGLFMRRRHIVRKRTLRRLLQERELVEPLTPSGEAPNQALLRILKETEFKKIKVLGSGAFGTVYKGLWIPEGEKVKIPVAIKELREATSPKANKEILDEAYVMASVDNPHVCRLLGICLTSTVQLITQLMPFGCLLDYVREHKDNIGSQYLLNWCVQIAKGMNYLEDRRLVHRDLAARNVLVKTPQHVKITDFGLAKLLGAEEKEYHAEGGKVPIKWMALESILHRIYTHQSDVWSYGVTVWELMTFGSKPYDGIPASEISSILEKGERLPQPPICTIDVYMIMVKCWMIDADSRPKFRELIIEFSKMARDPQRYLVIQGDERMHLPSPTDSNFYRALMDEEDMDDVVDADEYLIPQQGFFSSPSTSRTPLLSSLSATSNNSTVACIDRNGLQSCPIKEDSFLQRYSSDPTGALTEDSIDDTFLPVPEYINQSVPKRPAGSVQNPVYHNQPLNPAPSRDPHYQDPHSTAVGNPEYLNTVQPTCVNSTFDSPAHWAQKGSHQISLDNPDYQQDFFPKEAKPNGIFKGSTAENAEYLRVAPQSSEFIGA
Method: For the assay 50 nl of a 100 fold concentrated solution of the test compound in DMSO was pipetted into either a black low volume 384 well microtiter plate or a black 1536 well microtiter plate (both Greiner Bio-One, Frickenhausen, Germany), 2 μL of a solution of EGFR in aqueous assay buffer [50 mM Hepes pH 7.0, 10 mM MgCl2, 1 mM dithiothreitol, 0.5 mM EGTA, 0.3 mM activated sodium ortho-vanadate, 0.005% (w/v) bovine serum albumin, 0.005% (v/v) Tween-20] were added and the mixture was incubated for 15 min at 22° C. to allow pre-binding of the test compounds to the enzyme before the start of the kinase reaction. […] The concentration of EGFR was adjusted depending of the activity of the enzyme lot and was chosen appropriate to have the assay in the linear range, typical concentration was 7.6 pg/μL. The reaction was stopped by the addition of 3 μL of a solution of HTRF detection reagents (83.3 nM streptavidine-XL665 [Cisbio Bioassays, Codolet, France] and 1.67 nM PT66-Tb-Cryptate, a terbium-cryptate labelled anti-phospho-tyrosine antibody from Cisbio Bioassays [instead of the PT66-Tb-cryptate PT66-Eu-Chelate from Perkin Elmer can also be used]) in an aqueous EDTA-solution (133.3 mM EDTA, 0.2% (w/v) bovine serum albumin in 50 mM HEPES pH 7.5). […]

T1 sequence (P48729 whole entry, the tested form may be a part, canonical isoform): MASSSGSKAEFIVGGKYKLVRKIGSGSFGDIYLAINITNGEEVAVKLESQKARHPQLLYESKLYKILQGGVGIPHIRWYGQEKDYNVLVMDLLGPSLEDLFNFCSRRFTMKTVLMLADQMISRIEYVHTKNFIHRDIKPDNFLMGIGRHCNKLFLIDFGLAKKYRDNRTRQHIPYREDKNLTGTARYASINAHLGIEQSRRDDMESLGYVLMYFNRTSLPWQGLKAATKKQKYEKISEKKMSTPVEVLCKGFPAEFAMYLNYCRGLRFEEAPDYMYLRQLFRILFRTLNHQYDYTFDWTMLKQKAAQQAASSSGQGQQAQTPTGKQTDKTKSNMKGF

CC(C)C(C(=O)Nc1cc(-c2[nH]c3ccc(F)nc3c2-c2ccccn2)ccn1)c1ccc(F)cc1 (single isomer, unassigned) [US20230339939, Example 24]
IC50 [1]: 4.79 nM
IC50 [2]: 10.4 nM
IC50 [3]: 43 nM

O=C(Cc1ccc(F)cc1)Nc1cc(-c2[nH]c3c(CC4CC4)cc(F)nc3c2-c2ccccn2)ccn1 [US20230339939, Example 37]
IC50 [1]: 4 nM
IC50 [2]: 5.76 nM
IC50 [3]: 9.53 nM
IC50 [4]: > 20000 nM

From BindingDB's records for patent US20230339939 (Bayer Aktiengesellschaft, 2023)
